≈ marks a conversion by molar mass, not a printed value. Calls of active or inactive are those of the source. Bounds are passed on as bounds.

Experiment [1] concerns Staphylococcus aureus. The experiment in a line: Antibacterial activity against Staphylococcus aureus at 256 ug/ml by broth microdilution method. In kind it is functional, organism-based. The following applies: dose 256.0 µg/ml.
For experiment [2], the system named is Klebsiella pneumoniae. The experiment can be described thus: Antibacterial activity against Klebsiella pneumoniae at 256 ug/ml by broth microdilution method. Type of experiment: functional, organism-based. The following applies: dose 256.0 µg/ml. On the technique in general: In broth dilution the organism is exposed to a series of concentrations in liquid medium.

Experiment [3] deals with Acinetobacter baumannii. The experiment can be described thus: Antibacterial activity against Acinetobacter baumannii at 256 ug/ml by broth microdilution method. In kind it is functional, organism-based. To be noted: dose 256.0 µg/ml.
The subject of experiment [4] is Pseudomonas aeruginosa. The experiment in a line: Antibacterial activity against Pseudomonas aeruginosa at 256 ug/ml by broth microdilution method. Type of experiment: functional, organism-based. The following applies: dose 256.0 µg/ml.
For experiment [5], the system named is Klebsiella aerogenes. The experiment can be described thus: Antibacterial activity against Klebsiella aerogenes at 256 ug/ml by broth microdilution method. Type of experiment: functional, organism-based. The following applies: dose 256.0 µg/ml.
For experiment [6], the system named is Staphylococcus aureus. The experiment in a line: Antibacterial activity against Staphylococcus aureus by broth microdilution method. In kind it is functional.
Experiment [7] deals with Staphylococcus aureus. The experiment can be described thus: Antibacterial activity against methicillin-resistant Staphylococcus aureus by broth microdilution method. Type of experiment: functional.
In experiment [8] the test system is Staphylococcus aureus. The experiment in a line: Antibacterial activity against Staphylococcus aureus. Type of experiment: functional.
Experiment [9] deals with Staphylococcus aureus. The experiment can be described thus: Antibacterial activity against methicillin-resistant Staphylococcus aureus. Type of experiment: functional.

Consider `COc1cc(C(=O)/C=C/c2ccc(Br)cc2F)ccc1O`, for which the result in experiment [1], in experiment [2], in [3], in [4] and in experiment [5] was inactive.
Take `COc1cc(C(=O)/C=C/c2ccc(Cl)cc2)ccc1O`: the outcome in experiment [1], in experiment [2], in experiment [3], in experiment [4] and in experiment [5] was inactive.
By MIC is commonly meant the smallest concentration in the dilution series that meets the test's criterion for growth inhibition. A lower MIC goes with greater potency. On to `COc1cc(C(=O)/C=C/c2ccc(F)cc2)cc([N+](=O)[O-])c1O`, for which, in experiment [1], the outcome was Active. The result in [2], in experiment [3], in [4] and in experiment [5] was inactive. Further, the minimal inhibitory concentration (MIC) in [6] and in experiment [7] was 64 µg/mL (≈ 202 µM) throughout.
As for `COc1cc(C(=O)/C=C/c2cccc(C(F)(F)F)c2)cc([N+](=O)[O-])c1O`, in [1], the outcome was Active. The result in [2], in [3], in experiment [4] and in [5] was inactive. The values for the MIC in [6] and in experiment [7] were 32 µg/mL (≈ 87.1 µM) and 64 µg/mL (≈ 174 µM), respectively.
Regarding `O=C(/C=C/c1ccc(Cl)c(Cl)c1)c1cc(O)c(O)c([N+](=O)[O-])c1`, the values for the MIC in experiment [8] and in experiment [9] were 1 µg/mL (≈ 2.82 µM) and 16 µg/mL (≈ 45.2 µM), respectively.
`COc1cc(C(=O)/C=C/c2cccc(Cl)c2)ccc1O`: the outcome in experiment [1], in [2], in experiment [3], in [4] and in [5] was inactive.
In the case of `COc1cc(C(=O)/C=C/c2ccc(Cl)c(Cl)c2)cc([N+](=O)[O-])c1O`, in experiment [1], the result was Active. Also, the outcome in experiment [2], in [3], in experiment [4] and in experiment [5] was inactive. The MIC in experiment [6] and in experiment [7] was 8 µg/mL (≈ 21.7 µM) throughout.
For `COc1cc(C(=O)/C=C/c2ccc([N+](=O)[O-])cc2)cc([N+](=O)[O-])c1O`, the outcome in experiment [1] was Active. Besides, the outcome in [2], in experiment [3], in experiment [4] and in [5] was inactive. Moreover, the MIC in experiment [6] was 32 µg/mL (≈ 92.9 µM); in experiment [7], 64 µg/mL (≈ 186 µM).
On to `COc1cc(C(=O)/C=C/c2ccc(Cl)cc2Cl)cc([N+](=O)[O-])c1O`, for which the result in [1] was Active. Moreover, the outcome in experiment [2], in experiment [3], in [4] and in experiment [5] was inactive. The MIC in experiment [6] and in [7] was 256 µg/mL (≈ 695 µM) each time.
For the molecule `COc1cc(C(=O)/C=C/c2ccc(SC)cc2)ccc1O`, the result in experiment [1], in experiment [2], in experiment [3], in [4] and in [5] was inactive.
`COc1cc(C(=O)/C=C/c2cccc(F)c2)cc([N+](=O)[O-])c1O`: in experiment [1], the result was Active. The outcome in [2], in experiment [3], in experiment [4] and in experiment [5] was inactive. For the same molecule, the MIC in [6] was 32 µg/mL (≈ 101 µM); in [7] it was 64 µg/mL (≈ 202 µM).
Consider `COc1cc(C(=O)/C=C/c2cccc(C(F)(F)F)c2)ccc1O`, for which the result in [1], in experiment [2], in experiment [3], in experiment [4] and in experiment [5] was inactive.
Turning to `COc1cc(C(=O)/C=C/c2ccc(SC)cc2)cc([N+](=O)[O-])c1O`, in [1], the outcome was Active. Further, the result in experiment [2], in [3], in experiment [4] and in [5] was inactive. Also, the MIC in experiment [6] is 128 µg/mL (≈ 371 µM); in experiment [7], more than 256 µg/mL.
For the molecule `COc1cc(C(=O)/C=C/c2ccc(Cl)cc2)cc([N+](=O)[O-])c1O`, in [1], the result was Active. Further, the result in experiment [2], in experiment [3], in [4] and in experiment [5] was inactive. Moreover, the MIC in experiment [6] is 16 µg/mL (≈ 47.9 µM); in experiment [7], 32 µg/mL (≈ 95.9 µM).
Take `COc1cc(C(=O)/C=C/c2cccc(F)c2)ccc1O`: the outcome in [1], in experiment [2], in [3], in [4] and in experiment [5] was inactive.
Consider `COc1cc(C(=O)/C=C/c2cccc(Cl)c2)cc([N+](=O)[O-])c1O`, for which, in [1], the result was Active. The outcome in experiment [2], in [3], in experiment [4] and in [5] was inactive. Also, the MIC in [6] turned out to be 16 µg/mL (≈ 47.9 µM); in [7], 64 µg/mL (≈ 192 µM).
As to `COc1cc(C(=O)/C=C/c2ccc(Cl)c(Cl)c2)ccc1O`, the result in experiment [1], in [2], in experiment [3], in experiment [4] and in [5] was inactive.
With `COc1cc(C(=O)/C=C/c2ccc(Cl)cc2Cl)ccc1O`, the result in [1], in experiment [2], in [3], in experiment [4] and in experiment [5] was inactive.
Take `COc1cc(C(=O)/C=C/c2ccc(F)cc2)ccc1O`: the result in experiment [1], in [2], in [3], in experiment [4] and in [5] was inactive.
As for `CCOc1ccc(/C=C/C(=O)c2ccc(O)c(OC)c2)cc1`, the outcome in experiment [1] was Active. Moreover, the outcome in [2], in experiment [3], in experiment [4] and in [5] was inactive. Also, the MIC in [6] worked out at 16 µg/mL (≈ 53.6 µM); in experiment [7], 32 µg/mL (≈ 107 µM).
Take `CC(=O)N1N=C(c2cc(O)c(O)c([N+](=O)[O-])c2)CC1c1ccc(Cl)cc1` (centres undefined): the MIC was 0.5 µg/mL (≈ 1.33 µM) in experiment [8] and 32 µg/mL (≈ 85.2 µM) in experiment [9].

The values are drawn from ChEMBL document CHEMBL6114934, “Guaiacol-chalcone and nitroguaiacol-chalcone derivatives: In vitro and in silico antibacterial evaluation” (2025).
